Results taken from the supplement of paper PMC10307832.

Experiments:
Test in all cases: relative viability (nuclei count vs DMSO), 5 days (fraction); higher = more cells survive
QS11 + Lapatinib = compound: C1CC2=C(C1)C=C(C=C2)OC3=NC(=C4C(=N3)N(C=N4)CC5=CC=C(C=C5)C6=CC=CC=C6)N[C@@H](CC7=CC=CC=C7)CO [QS11] + CS(=O)(=O)CCNCc1ccc(-c2ccc3ncnc(Nc4ccc(OCc5cccc(F)c5)c(Cl)c4)c3c2)o1 [Lapatinib] (partner 2 µM)
Procedure, shortened: (§1)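 Lung cancer cell lines, seeded in 1536-well plates, were treated the following day by pin tool with a single drug or with five library-drug doses (not always all listed) in √10 steps on top of a fixed anchor-drug dose. Cells were fixed and nuclei stained in one step after 5 days, and nuclei were counted. Relative viability is the nuclei count for treated wells divided by that for vehicle wells, reported as medians of duplicate plates.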

AZ628 + Trametinib = compound: CC1=C(C=C(C=C1)NC(=O)C2=CC(=CC=C2)C(C)(C)C#N)NC3=CC4=C(C=C3)N=CN(C4=O)C [AZ628] + CC(=O)Nc1cccc(-n2c(=O)n(C3CC3)c(=O)c3c(Nc4ccc(I)cc4F)n(C)c(=O)c(C)c32)c1 [Trametinib] (partner 0.02 µM)
Procedure, shortened: as §1

AZ628 + Lapatinib = compound: CC1=C(C=C(C=C1)NC(=O)C2=CC(=CC=C2)C(C)(C)C#N)NC3=CC4=C(C=C3)N=CN(C4=O)C [AZ628] + CS(=O)(=O)CCNCc1ccc(-c2ccc3ncnc(Nc4ccc(OCc5cccc(F)c5)c(Cl)c4)c3c2)o1 [Lapatinib] (partner 2 µM)
Procedure, shortened: as §1

AZ628 + Dasatinib = compound: CC1=C(C=C(C=C1)NC(=O)C2=CC(=CC=C2)C(C)(C)C#N)NC3=CC4=C(C=C3)N=CN(C4=O)C [AZ628] + Cc1nc(Nc2ncc(C(=O)Nc3c(C)cccc3Cl)s2)cc(N2CCN(CCO)CC2)n1 [Dasatinib] (partner 0.075 µM)
Procedure, shortened: as §1

Cell Line	relative viability (QS11 + Lapatinib; first compound 0.08 µM)	relative viability (QS11 + Lapatinib; first compound 0.253 µM)	relative viability (QS11 + Lapatinib; first compound 0.8 µM)	relative viability (QS11 + Lapatinib; first compound 2.53 µM)	relative viability (QS11 + Lapatinib; first compound 8 µM)	relative viability (AZ628 + Trametinib; first compound 0.08 µM)	relative viability (AZ628 + Trametinib; first compound 0.253 µM)	relative viability (AZ628 + Trametinib; first compound 0.8 µM)	relative viability (AZ628 + Trametinib; first compound 2.53 µM)	relative viability (AZ628 + Trametinib; first compound 8 µM)	relative viability (AZ628 + Lapatinib; first compound 0.08 µM)	relative viability (AZ628 + Lapatinib; first compound 0.253 µM)	relative viability (AZ628 + Lapatinib; first compound 0.8 µM)	relative viability (AZ628 + Lapatinib; first compound 2.53 µM)	relative viability (AZ628 + Lapatinib; first compound 8 µM)	relative viability (AZ628 + Dasatinib; first compound 0.08 µM)	relative viability (AZ628 + Dasatinib; first compound 0.253 µM)	relative viability (AZ628 + Dasatinib; first compound 0.8 µM)	relative viability (AZ628 + Dasatinib; first compound 2.53 µM)	relative viability (AZ628 + Dasatinib; first compound 8 µM)
NCI-H2405	0.951	1.02	1.02	1.29	1.07	0.387	0.319	0.277	0.286	0.313	0.733	0.59	0.487	0.487	0.515	0.175	0.201	0.189	0.172	0.23
NCI-H3122	1.03	1.14	0.71	1.16	0.824	0.157	0.143	0.159	0.138	0.132	0.975	0.733	0.733	0.684	0.435	0.819	0.39	0.15	0.212	0.176
PC-3 [JPC-3]	0.464	0.409	0.436	0.5	0.435	0.685	0.579	0.647	0.574	0.386	0.488	0.5	0.52	0.47	0.471	0.936	0.893	1.02	1.05	0.604
PC-14	0.277	0.315	0.257	0.249	0.329	0.441	0.301	0.205	0.178	0.195	0.347	0.365	0.351	0.313	0.343	0.274	0.289	0.315	0.262	0.146
